Laboratory results published in ChEMBL document CHEMBL2406963, “Tetrazole and triazole as bioisosteres of carboxylic acid: discovery of diketo tetrazoles and diketo triazoles as anti-HCV agents” (Bioorg Med Chem Lett, 2013).

Assays:
Hepatitis C virus [1] = assay: Antiviral activity against HCV infected in human Huh7 cells assessed as inhibition of viral replication by measuring EGFP autofluorescence at 50 uM by CCK8 assay relative to control; type: functional, Hepacivirus hominis; settings: Huh-7
[2] = Cytotoxicity against human HuH7 cells; type: cell-based, Huh-7
[3] = Selectivity index, ratio of CC50 for human HuH7 cells to EC50 for HCV; design: species or system Huh-7
Hepatitis C virus [4] = assay: Antiviral activity against HCV infected in human Huh7 cells assessed as inhibition of viral replication by measuring EGFP autofluorescence by CCK8 assay; type: functional, organism-based, Hepacivirus hominis; settings: Huh-7
Hepatitis C virus [5] = assay: Inhibition of NS5A protein synthesis in HCV by Western blot analysis; type: functional, organism-based; settings: Hepacivirus hominis
Hepatitis C virus [6] = assay: Inhibition of viral genome mRNA expression in HCV by RT-PCR analysis; type: functional, organism-based; settings: Hepacivirus hominis
Hepatitis C virus [7] = assay: Antiviral activity against HCV infected in human Huh7 cells assessed as inhibition of viral replication by measuring EGFP autofluorescence at 2 uM by CCK8 assay relative to control; type: functional, Hepacivirus hominis; settings: Huh-7

SMILES | inhibition at 50 µM (Hepatitis C virus [1]) [%] | other results
O=C(CC(=O)c1nnc[nH]1)c1cccc(OCc2ccc(Cl)cc2)c1 | 29.2 | –
O=C(CC(=O)c1nnn[nH]1)c1ccc([N+](=O)[O-])cc1 | 14.7 | –
O=C(CC(=O)c1ccccc1OCc1ccc(F)cc1)c1nnc[nH]1 | 55 | –
O=C(CC(=O)c1nnc[nH]1)c1cccc(OCc2ccc(F)cc2)c1 | 43.4 | –
O=C(CC(=O)c1ccccc1OCc1ccccc1)c1nnc[nH]1 | 34.4 | –
O=C(CC(=O)c1ccccc1OCc1ccccc1)c1nnn[nH]1 | 67.6 | CC50 [2]: > 500 µM; Ratio CC50/EC50 [3]: >54; EC50 (Hepatitis C virus [4]): 9.2 µM
O=C(CC(=O)c1ccco1)c1nnc[nH]1 | 14.5 | –
COc1ccc(C(=O)CC(=O)c2nnn[nH]2)cc1 | 28.7 | –
O=C(CC(=O)c1nnn[nH]1)c1ccc(OCc2ccccc2)cc1 | 54.9 | –
O=C(CC(=O)c1nnn[nH]1)c1cccc(OCc2ccccc2)c1 | 11.1 | –
O=C(CC(=O)c1nnc[nH]1)c1cccc(OCc2ccccc2)c1 | 48.2 | –
O=C(CC(=O)c1ccccc1OCc1ccc(Cl)cc1)c1nnn[nH]1 | 36.2 | –
O=C(CC(=O)c1ccccc1OCc1ccc(F)cc1)c1nnn[nH]1 | 6.8 | –
O=C(CC(=O)c1nnc[nH]1)c1ccc(OCc2ccc(F)cc2)cc1 | 69.7 | CC50 [2]: > 500 µM; Ratio CC50/EC50 [3]: >128; EC50 (Hepatitis C virus [4]): 3.9 µM; inhibition (Hepatitis C virus [5]): Dose-dependent effect; inhibition (Hepatitis C virus [6]): Dose-dependent effect
O=C(CC(=O)c1nnc[nH]1)c1ccc(OCc2ccccc2)cc1 | 12.1 | –
O=C(CC(=O)c1nnn[nH]1)c1ccc(OCc2ccc(F)cc2)cc1 | 10.7 | –
O=C(CC(=O)c1nnn[nH]1)c1cccc(OCc2ccc(F)cc2)c1 | 62.7 | –
CC(C)C(=O)OC[C@H]1O[C@@H](n2ccc(N)nc2=O)[C@](C)(F)[C@@H]1OC(=O)C(C)C [MERICITABINE] | – | inhibition at 2 µM (Hepatitis C virus [7]): 75.3%
O=C(/C=C(\O)c1nc[nH]n1)c1ccc(Cc2ccc(F)cc2)o1 [S-1360] | 22.4 | –
O=C(CC(=O)c1nnn[nH]1)c1ccc(OCc2ccc(Cl)cc2)cc1 | 64.9 | –
O=C(CC(=O)c1ccco1)c1nnn[nH]1 | 0.9 | –
O=C(/C=C(\O)c1nnn[nH]1)c1c[nH]c2ccc(Cl)cc12 | 24.3 | –
O=C(CC(=O)c1nnn[nH]1)c1cccc(OCc2ccc(Cl)cc2)c1 | 43.6 | –
O=C(CC(=O)c1ccccc1OCc1ccc(Cl)cc1)c1nnc[nH]1 | 53.8 | –
O=C(CC(=O)c1nnc[nH]1)c1ccccc1 | 24.8 | –
O=C(CC(=O)c1nnc[nH]1)c1ccc(OCc2ccc(Cl)cc2)cc1 | 70.2 | CC50 [2]: > 500 µM; Ratio CC50/EC50 [3]: >77; EC50 (Hepatitis C virus [4]): 6.5 µM
O=C(CC(=O)c1nnn[nH]1)c1ccccc1 | -1.3 | –
